Reference: patent US20240165196A1, “Beta-Lactamase Inhibitors” (VIB VZW, priority 2021, published 2024)
In brackets after ≈: the same amount, converted by molar mass. Peptide text beside a SMILES is read from it.

Tests used:
Format in all cases: cell-based
E. coli TEM-104 = system: E. coli TEM-104; on Interpretation: key: S, susceptible; I, intermediate; R, resistant
Protocol: (§1) Beta-lactamase clinical samples were collected from University Hospitals Leuven and tested for ESBL production using the disk diffusion method^61. The beta-lactamase reference isolates were purchased from IHMA International Health management associates. Bacterial strains were cultivated in Mueller Hinton Broth (MHB, Difco) at 37° C. Whenever required growth media were supplemented with appropriate antibiotic to the medium or plates (kanamycin 30 μg/mL, L-arabinose 0.5 mg/mL, and IPTG 1 mM/mL). Escherichia coli BL21 (Thermo Fisher Scientific, Belgium) was used for cloning and plasmid amplification. For selection of antibiotic resistance colonies, E. coli carrying plasmids was grown in LB agar plates supplemented with the relevant antibiotic. Bacterial CFU counting was done on blood agar plates (BD Biosciences, Belgium) or MHA agar plates. Species identification and antibiograms for all clinical isolates were performed using MALDI-Tof and VITEK® 2 automated system (BioMérieux, France).

E. coli TEM-1 ? = system: E. coli TEM-1 ?
Protocol: as §1

E. coli TEM-30 = system: E. coli TEM-30; on Interpretation: key: S, susceptible; I, intermediate; R, resistant
Protocol: as §1

E. coli TEM-148 = system: E. coli TEM-148; on Interpretation: key: S, susceptible; I, intermediate; R, resistant
Protocol: as §1

E. coli NDM ? b = assay: antimicrobial susceptibility testing, VITEK 2 AST Cards; on Interpretation: key: S, susceptible; I, intermediate; R, resistant
Protocol: as §1

E. coli TEM-206 = assay: as above
Protocol: as §1

E. coli NDM ? a = assay: as above
Protocol: as §1

E. coli SH ? (APHA) = assay: as above
Protocol: as §1

E. coli strain UZ_TEM104 [1] = details: in presence of additive at 50 μg/mL
E. coli strain UZ_TEM104 [2] = details: peptide alone
Description: In order to generate a synthetic amyloid peptide capable of inactivating the TEM-1 beta-lactamase enzyme by capitalizing on its aggregation propensity, we applied a previously developed design pattern for synthetic aggregating sequences. This involves a tandem repeat of the APR, each instance flanked by charged amino acids for solubility and separated by a short peptide linker^19,20,23 (FIG. 2G). Previous work has shown that good bacterial uptake can be achieved using one positively charged arginine residue on the N-terminal side of each APR in the tandem and two arginine residues on the C-terminal side. This has the additional benefit of reducing the self-aggregation of the peptides and increasing their solubility prior to target engagement. As before, we employed a single Pro residue as a linker between the APRs and focused on an APR length of seven, extending shorter APRs to this length by incorporating flanking amino acids unless they were obvious aggregation breakers (Arg, Lys, Asp, Glu or Pro, see Table 1). We obtained these peptides from solid phase synthesis, followed by HPLC purification to a purity judged by reverse phase chromatography of at least 90% (Genscript).
Determination of MIC values using the broth microdilution in the 96-well plate (BD Biosciences, Belgium) according to the EUCAST guideline, which was performed in 96-well polystyrene flat bottom microtiter plates (BD Biosciences). Briefly, a single colony was inoculated into 5 mL Difco™ Mueller Hinton Broth (BD Biosciences Ref 275730) and grown to the end-exponential growth phase in a shaking incubator at 37° C. Cultures were subsequently diluted to an MacFarland (0.5 optical density) then the culture was diluted to reach 10^6 CFU/mL in fresh MHB medium. 50 μl of different concentration of peptides ranging from 128 to 2 μg/mL were serially diluted to the sterile 96-well plate in MHB. 50 μL of the diluted bacteria in MHB were pipetted into 96-well plates to reach the final volume of 100 μL. The bacteria grown with the maximum concentration of carrier and medium were considered as positive and negative controls, respectively. The plates were statically incubated overnight at 37° C. to allow bacterial growth. OD was measured at 590 nm a multipurpose ultraviolet-visible plate reader, and the absorbance of the growth bacteria was measured using absorbance reader. Bacterial growth was also visually inspected and agreed well with the OD reading.
Wherever Interpretation is given: key: S, susceptible; I, intermediate; R, resistant.

Row | Compound | Interpretation (E. coli TEM-104) | MIC (E. coli TEM-104) | Interpretation (E. coli TEM-1 ?) | MIC (E. coli TEM-1 ?) | Interpretation (E. coli TEM-30) | MIC (E. coli TEM-30) | Interpretation (E. coli TEM-148) | MIC (E. coli TEM-148) | Interpretation (E. coli NDM ? b) | MIC (E. coli NDM ? b) | Interpretation (E. coli TEM-206) | MIC (E. coli TEM-206) | Interpretation (E. coli NDM ? a) | MIC (E. coli NDM ? a) | Interpretation (E. coli SH ? (APHA)) | MIC (E. coli SH ? (APHA)) | MIC penicillin (E. coli strain UZ_TEM104 [1]) | MIC peptide (E. coli strain UZ_TEM104 [2])
1 | CO/N=C(\C(=O)N[C@@H]1C(=O)N2C(C(=O)OC(C)OC(C)=O)=C(COC(N)=O)CS[C@H]12)c1ccco1 (some centres unmarked) | S | 4 µg/mL (≈ 7.84 µM) | R | ≥ 64 µg/mL | R | ≥ 64 µg/mL | R | ≥ 64 µg/mL | R | ≥ 64 µg/mL | R | ≥ 64 µg/mL | R | ≥ 64 µg/mL | R | – | – | –
2 | NCC[C@H](O)C(=O)N[C@@H]1C[C@H](N)[C@@H](O[C@H]2O[C@H](CN)[C@@H](O)[C@H](O)[C@H]2O)[C@H](O)[C@H]1O[C@H]1O[C@H](CO)[C@@H](O)[C@H](N)[C@H]1O [Amikacin] | S | ≤ 2 µg/mL | S | ≤ 2 µg/mL | – | – | S | ≤ 2 µg/mL | S | – | S | ≤ 2 µg/mL | S | – | S | – | – | –
3 | CC(C)(O/N=C(\C(=O)N[C@@H]1C(=O)N2C(C(=O)[O-])=C(C[n+]3ccccc3)CS[C@H]12)c1csc(N)n1)C(=O)O [C ? dime] | S | ≤ 1 µg/mL | R | 16 µg/mL (≈ 29.3 µM) | – | ≤ 1 µg/mL | – | ≤ 1 µg/mL | R | ≥ 64 µg/mL | R | 16 µg/mL (≈ 29.3 µM) | R | ≥ 64 µg/mL | R | ≥ 64 µg/mL | – | –
4 | CO/N=C(\C(=O)N[C@@H]1C(=O)N2C(C(=O)[O-])=C(C[N+]3(C)CCCC3)CS[C@H]12)c1csc(N)n1 [C ? ime] | S | ≤ 1 µg/mL | R | ≥ 64 µg/mL | – | ≤ 1 µg/mL | – | 2 µg/mL (≈ 4.16 µM) | R | ≥ 64 µg/mL | R | ≥ 64 µg/mL | R | ≥ 64 µg/mL | R | 16 µg/mL (≈ 33.3 µM) | – | –
5 | CO[C@@]1(NC(=O)Cc2cccs2)C(=O)N2C(C(=O)O)=C(COC(N)=O)CS[C@@H]21 [C ? tin] | – | – | S | – | – | – | – | – | – | – | S | ≤ 4 µg/mL | – | – | – | – | – | –
6 | CO/N=C(\C(=O)N[C@@H]1C(=O)N2C(C(=O)O)=C(COC(N)=O)CS[C@H]12)c1ccco1 [C ? xime] | S | 4 µg/mL (≈ 9.43 µM) | R | ≥ 64 µg/mL | R | ≥ 64 µg/mL | R | ≥ 64 µg/mL | R | ≥ 64 µg/mL | R | ≥ 64 µg/mL | R | ≥ 64 µg/mL | R | – | – | –
7 | CO/N=C(\C(=O)N[C@@H]1C(=O)N2C(C(=O)O)=C(COC(C)=O)CS[C@H]12)c1csc(N)n1 [Cef ? axime] | S | ≤ 1 µg/mL | R | ≥ 64 µg/mL | R | 4 µg/mL (≈ 8.78 µM) | R | 16 µg/mL (≈ 35.1 µM) | R | ≥ 64 µg/mL | R | ≥ 64 µg/mL | R | ≥ 64 µg/mL | R | ≥ 64 µg/mL | – | –
8 | C[C@H]1COc2c(N3CCN(C)CC3)c(F)cc3c(=O)c(C(=O)O)cn1c23 [Levofloxacin] | – | – | – | – | – | – | – | – | – | – | R | – | – | – | S | – | – | –
9 | C[C@@H](O)[C@H]1C(=O)N2C(C(=O)O)=C(S[C@@H]3CN[C@H](C(=O)N(C)C)C3)[C@H](C)[C@H]12 [Meropen ? m] | S | – | S | ≤ 0.25 µg/mL | S | ≤ 0.25 µg/mL | S | ≤ 0.25 µg/mL | I | 8 µg/mL (≈ 20.9 µM) | S | ≤ 0.25 µg/mL | R | ≥ 16 µg/mL | S | ≤ 0.25 µg/mL | – | –
10 | O=C1CN(/N=C/c2ccc([N+](=O)[O-])o2)C(=O)N1 [Nitrofuran ?] | S | – | S | ≤ 16 µg/mL | S | 32 µg/mL (≈ 134 µM) | S | 32 µg/mL (≈ 134 µM) | R | 64 µg/mL (≈ 269 µM) | S | – | R | 64 µg/mL (≈ 269 µM) | S | ≤ 16 µg/mL | – | –
11 | CO[C@@]1(NC(=O)C(C(=O)O)c2ccsc2)C(=O)N2[C@@H](C(=O)O)C(C)(C)S[C@@H]21 (some centres unmarked) [T ? cillin] | – | – | – | – | – | – | – | – | – | – | S | – | – | – | – | – | – | –
12 | CC(=O)N[C@@H](CCCNC(=N)N)C(=O)N[C@@H](Cc1ccccc1)C(=O)N[C@@H](Cc1ccccc1)C(=O)N[C@@H](C)C(=O)N[C@@H](C)C(=O)N[C@@H](Cc1ccccc1)C(=O)N[C@@H](CS)C(=O)N[C@@H](CC(C)C)C(=O)N[C@@H](CCCNC(=N)N)C(=O)N[C@@H](CCCNC(=N)N)C(=O)N[C@@H](CCCNC(=N)N)C(=O)N1CCC[C@H]1C(=O)N[C@@H](Cc1ccccc1)C(=O)N[C@@H](Cc1ccccc1)C(=O)N[C@@H](C)C(=O)N[C@@H](C)C(=O)N[C@@H](Cc1ccccc1)C(=O)N[C@@H](CS)C(=O)N[C@@H](CC(C)C)C(=O)N[C@@H](CCCNC(=N)N)C(=O)N[C@@H](CCCNC(=N)N)C(N)=O [TEM1.0] (Ac-RFFAAFCLRRRPFFAAFCLRR-NH2) | – | – | – | – | – | – | – | – | – | – | – | – | – | – | – | – | 1600 µg/mL | –
13 | CN(C)c1cc(NC(=O)CNC(C)(C)C)c(O)c2c1C[C@H]1C[C@H]3[C@H](N(C)C)C(O)=C(C(N)=O)C(=O)[C@@]3(O)C(O)=C1C2=O [Tig ? cycline] | – | – | – | – | – | – | – | – | – | – | – | – | – | – | S | – | – | –
14 | NC[C@H]1O[C@H](O[C@H]2[C@H](O)[C@@H](O[C@H]3O[C@H](CO)[C@@H](O)[C@H](N)[C@H]3O)[C@H](N)C[C@@H]2N)[C@H](N)C[C@@H]1O [Tobramycin] | S | ≤ 1 µg/mL | S | ≤ 1 µg/mL | – | – | S | ≤ 1 µg/mL | S | – | S | ≤ 1 µg/mL | – | – | – | – | – | –
15 | Ac-RAGWFIARRPRAGWFIARR-NH2 [TEM5.0] | – | – | – | – | – | – | – | – | – | – | – | – | – | – | – | – | 1600 µg/mL | 100 µg/mL
16 | Ac-RGIIAALGRRPRGIIAALGRR-NH2 [TEM6.0] | – | – | – | – | – | – | – | – | – | – | – | – | – | – | – | – | 1600 µg/mL | >100 µg/mL
17 | Ac-RIVVIYTTRRPRIVVIYTTRR-NH2 [TEM7.0] | – | – | – | – | – | – | – | – | – | – | – | – | – | – | – | – | 1600 µg/mL | >100 µg/mL
18 | Ac-RLLLTTIGRRPRLLLTTIGRR-NH2 [TEM2.0] | – | – | – | – | – | – | – | – | – | – | – | – | – | – | – | – | 800 µg/mL | >100 µg/mL
19 | Colistin | S | ≤ 0.5 µg/mL | S | ≤ 0.5 µg/mL | S | ≤ 0.5 µg/mL | S | ≤ 0.5 µg/mL | S | ≤ 0.5 µg/mL | S | ≤ 0.5 µg/mL | S | ≤ 0.5 µg/mL | S | ≤ 0.5 µg/mL | – | –
20 | Gentamicin | S | ≤ 1 µg/mL | S | ≤ 1 µg/mL | R | ≥ 16 µg/mL | S | ≤ 1 µg/mL | S | ≤ 1 µg/mL | S | ≤ 1 µg/mL | R | ≥ 16 µg/mL | R | – | – | –
